How the values were obtained:
Format in all cases: physicochemical
Humectancy assay = conditions: dried at 54° C., then 97% relative humidity at 25° C.; weight after/before x 100
Protocol: The complexes of the interaction assay were used to conduct a humectancy assay. […] After reweighing on an analytical balance, the trays were placed in a climate chamber and stored for at least 2 days at 54° C. or until no further weight change was observed. […] The air tight box was 20 cm×12 cm×7 cm. In the box a chicken wire construct was used to create two levels with 10-20 ml of saturated solution of dipotassium sulfate in a petri dish in a lower level, and the samples in an upper level. Boxes were located into an incubator at 25° C. The boxes were incubated for at least 5 days at 25° C. before use to allow equilibration of temperature and humidity. Hereafter, the trays were reweighed.
The change in humectancy by combining a pesticide and polyelectrolyte is expressed as percent value by multiplying the sample weight after incubation (w2) with 100 divided with the sample weight before incubation (w1) using the following equation: […]
To evaluate the effect of the interaction of the active ingredient and polyelectrolyte on humectancy (synergetic/antagonistic/no effect), the determined Humectancy of the samples containing both active ingredient and polyelectrolyte “Humectancy (blend)” was divided by the theoretical value of Humectancy of the blend provided by respective proportion (% AI; % PE) of each pesticide and polyelectrolyte using the following equation: […]
According to this formula, a positive result of more than 1 is indicative of synergy.
The complexes obtained with the method of WO2010035118, with both ratios of 2:1 and 1:5 (PAA:AI) were tested for humectancy. […] For each sample, the test was carried in triplicate.
For each sample, the test was carried in triplicate.

[1] = Visual interaction of active ingredient with chitosan; design: key to Visual observation category, Active ingredient: chitosan: P: Formation of a precipitate; G: Formation of a gel; C: Formation of a coacervate; V: Increase/decrease of the sediment volume; S: Decrease of solid by increase of solved active ingredient; No visual observable interaction
Protocol: (§1) To determine interaction between polyelectrolytes (PE; Table 1) and active ingredients (AI; Table 2) aqueous stock solutions of about 200 g/L of the PE and of the active ingredients were prepared. The polyelectrolytes were diluted in water and stirred on magnetic stirrer for at least 30 minutes until a homogenous clear solution was obtained (ratios and amounts are presented in Table 4). The active ingredients were dissolved in water on magnetic stirrer or, if they weren't water soluble, suspended in water and milled by adding glass beads (1 mm) in a stainless steel metal beaker until they reach a volume-based average particle size below 20 μm (90% of particles below 20 μm), as determined by laser diffraction. After that the mixture was filtered with a sieve to remove glass beads and the filtrate was used for further analysis.
(§2) A polyelectrolyte solution, PAA or chitosan, was added to a 100-150 mL glass beaker, followed by water and an active ingredient solution/suspension. The mixture was stirred for at least 4 hours, and samples were observed after at least 16 hours. The visual observable interactions were divided into five categories (see Table 3). The categories were chosen by comparison to a blank sample containing the same concentration of active ingredient in water but without polyelectrolyte. […] Interactions were studied over a large range of active ingredient to polyelectrolyte ratios, including 10.000:1 (w/w), 1000:1 (w/w), 100:1 (w/w), 10:1 (w/w), 1:1 (w/w), 1:10 (w/w), 1:100 (w/w) and 1:1000) (w/w).

[2] = Visual interaction with polyanion sodium lignosulfonate; conditions: visible complex formation
[3] = Visual interaction of active ingredient with polyelectrolyte PAA
Protocol: as §1, §2

[4] = ratio active ingredient:chitosan 1.000:1 (w/w)
[5] = ratio active ingredient:chitosan 1:1 (w/w)
[6] = ratio active ingredient:chitosan 1:10 (w/w)
[7] = ratio active ingredient:chitosan 1:100 (w/w)
[8] = ratio active ingredient:chitosan 2:1 (w/w)
[9] = ratio active ingredient:chitosan 5:1 (w/w)
[10] = ratio active ingredient:chitosan 10.000:1 (w/w)
[11] = ratio active ingredient:chitosan 10:1 (w/w)
[12] = ratio active ingredient:chitosan 100:1 (w/w)
[13] = ratio active ingredient:PAA 1:1 (w/w)
[14] = ratio active ingredient:PAA 1:1000 (w/w)
[15] = ratio active ingredient:PAA 10.000:1 (w/w)
[16] = ratio active ingredient:PAA 1.000:1 (w/w)
[17] = ratio active ingredient:PAA 1:10 (w/w)
[18] = ratio active ingredient:PAA 1:100 (w/w)
[19] = ratio active ingredient:PAA 100:1 (w/w)

With `O=C(O)COc1ccc(Cl)cc1Cl` [2,4D, 2-(2,4-dichlorophenoxy)acetic acid] the Humectancy (Humectancy assay) was 212.7%, the “Visual observation category, Active ingredient: chitosan” value (“Visual observation category … chitosan” below) [1, 4] was “N” and the “Visual observation category … chitosan” value [1, 5] was “P”. The “Visual observation category … chitosan” value [1, 6] was “N”, the “Visual observation category … chitosan” value [1, 7] was “N” and the “Visual observation category … chitosan” value [1, 8] was “P”. For the same compound, the “Visual observation category … chitosan” value [1, 9] was “P”, the “Visual observation category … chitosan” value [1, 10] was “N” and the “Visual observation category … chitosan” value [1, 11] was “P”. For the same compound, the “Visual observation category … chitosan” value [1, 12] was “P”, the “Interaction with the polyanion sodium lignosulfonate” value [2] was “did not form a visible complex” and the “Visual observation category, Active ingredient: PAA” value (“Visual observation category … PAA” for short) [3, 13] was “G/P”. The “Visual observation category … PAA” value [3, 14] was “N” and the “Visual observation category … PAA” value [3, 15] was “N”.
In the case of `N.N.O=[PH](O)O` [(NH4)2HPO3], the “Interaction with the polyanion sodium lignosulfonate” value [2] is reported as “did not form a visible complex”, the “Visual observation category … PAA” value [3, 16] is reported as “N” and the “Visual observation category … PAA” value [3, 17] is reported as “N”. The “Visual observation category … PAA” value [3, 18] was “N”, the “Visual observation category … PAA” value [3, 15] was “N” and the “Visual observation category … PAA” value [3, 19] was “N”.
With `CNC(=N[N+](=O)[O-])NCc1cnc(Cl)s1` [Clothianidin, 1-[(2-chloro-1,3-thiazol-5-yl)methyl]-3-methyl-2-nitroguanidine] the Humectancy (Humectancy assay) was 120.0%, the “Visual observation category … PAA” value [3, 17] was “N” and the “Visual observation category … PAA” value [3, 18] was “N”. The “Visual observation category … PAA” value [3, 14] was “N” and the “Visual observation category … PAA” value [3, 15] was “N”.
For `COc1c(Cl)ccc(Cl)c1C(=O)O` [Dicamba, 3,6-dichloro-2-methoxybenzoic acid], the “Visual observation category … chitosan” value [1, 4] was “P”, the “Visual observation category … chitosan” value [1, 5] was “N” and the “Visual observation category … chitosan” value [1, 6] was “N”. The “Visual observation category … chitosan” value [1, 7] was “N”, the “Visual observation category … chitosan” value [1, 8] was “N” and the “Visual observation category … chitosan” value [1, 9] was “P”. The “Visual observation category … chitosan” value [1, 10] was “N”, the “Visual observation category … chitosan” value [1, 11] was “P” and the “Visual observation category … chitosan” value [1, 12] was “P”. The “Interaction with the polyanion sodium lignosulfonate” value [2] was “did not form a visible complex”, the “Visual observation category … PAA” value [3, 17] was “N” and the “Visual observation category … PAA” value [3, 18] was “N”. The “Visual observation category … PAA” value ([3]; ratio active ingredient:PAA 100.000:1 (w/w)) was “N”.
In the case of `CCO[PH](=O)O` [Fosetyl Al], the Humectancy (Humectancy assay) is reported as 137.0%, the “Visual observation category … PAA” value [3, 17] is reported as “N” and the “Visual observation category … PAA” value [3, 18] is reported as “N”. For the same compound, the “Visual observation category … PAA” value [3, 14] was “N” and the “Ratios at which active ingredient interacted (w/w; active ingredient:polycation)” value ([3]; summary of Table 4) was “from 10.000:1 to 1:1”.
With `O=[N+]([O-])/N=C1\NCCN1Cc1ccc(Cl)nc1` [Imidacloprid, (NE)-N-[1-[(6-chloropyridin-3-yl)methyl]imidazolidin-2-ylidene]nitramide] the Humectancy (Humectancy assay) was 108.4%, the “Visual observation category … PAA” value [3, 13] was “N” and the “Visual observation category … PAA” value [3, 17] was “N”. For the same compound, the “Visual observation category … PAA” value [3, 18] was “N”, the “Visual observation category … PAA” value ([3]; ratio active ingredient:PAA 2:1 (w/w)) was “N” and the “Visual observation category … PAA” value ([3]; ratio active ingredient:PAA 5:1 (w/w)) was “No”. The “Visual observation category … PAA” value [3, 15] was “N”.
In the case of `O=[PH]([O-])[O-].[K+].[K+]` [K2HPO3], the “Interaction with the polyanion sodium lignosulfonate” value [2] is reported as “did not form a visible complex”, the “Visual observation category … PAA” value [3, 16] is reported as “N” and the “Visual observation category … PAA” value [3, 17] is reported as “N”. For the same compound, the “Visual observation category … PAA” value [3, 18] was “N”, the “Visual observation category … PAA” value [3, 15] was “N” and the “Visual observation category … PAA” value [3, 19] was “N”.
In the case of `O=[PH]([O-])[O-].[Na+].[Na+]` [Na2HPO3], the “Interaction with the polyanion sodium lignosulfonate” value [2] is reported as “did not form a visible complex”, the “Visual observation category … PAA” value [3, 16] is reported as “N” and the “Visual observation category … PAA” value [3, 17] is reported as “N”. For the same compound, the “Visual observation category … PAA” value [3, 18] was “N”, the “Visual observation category … PAA” value [3, 15] was “N” and the “Visual observation category … PAA” value [3, 19] was “N”.
In the case of `C[C@@H]1C/C=C/C=C/C=C/C=C/[C@H](O[C@@H]2O[C@H](C)[C@@H](O)[C@H](N)[C@@H]2O)C[C@@H]2O[C@](O)(C[C@@H](O)C[C@H]3O[C@@H]3/C=C/C(=O)O1)C[C@H](O)[C@H]2C(=O)O` [Natamycin, (1R,3S,5R,7R,8E,12R,14E,16E,18E,20E,22R,24S,25R,26S)-22-[(2R,3S,4S,5S,6R)-4-amino-3,5-dihydroxy-6-methyloxan-2-yl]oxy-1,3,26-trihydroxy-12-methyl-10-oxo-6,11,28-trioxatricyclo[22.3.1.05,7]octacosa-8,14,16,18,20-pentaene-25-carboxylic acid], the Interaction with chitosan [1] is reported as “interact”, the “Visual observation category … PAA” value [3, 16] is reported as “N” and the “Visual observation category … PAA” value [3, 17] is reported as “N”. The “Visual observation category … PAA” value [3, 18] was “N”.
With `CCCCCCCCC(=O)O` [Pelargonic acid, nonanoic acid] the “Interaction with the polyanion sodium lignosulfonate” value [2] was “did not form a visible complex”, the “Visual observation category … PAA” value [3, 18] was “N” and the “Visual observation category … PAA” value [3, 14] was “N”. The “Visual observation category … PAA” value [3, 15] was “N”.
In the case of `O=C(O)[C@@H]1CCCN1` [Proline], the “Visual observation category … PAA” value [3, 16] is reported as “N”, the “Visual observation category … PAA” value [3, 13] is reported as “N” and the “Visual observation category … PAA” value [3, 17] is reported as “N”. The “Visual observation category … PAA” value [3, 18] was “N”, the “Visual observation category … PAA” value [3, 14] was “N” and the “Visual observation category … PAA” value [3, 15] was “N”. For the same compound, the “Visual observation category … PAA” value ([3]; ratio active ingredient:PAA 10:1 (w/w)) was “N” and the “Visual observation category … PAA” value [3, 19] was “N”.
For `O=C1c2ccccc2C(=O)N1SC(Cl)(Cl)Cl` [folpet, N-(trichloromethylthio)phthalimide], the “Interaction with the polycation PAA” value [3] was “interacts over a large range of ratio's”.
